# Experimental data taken from BindingDB's records for doi:10.1016/j.bmcl.2012.08.044 (Lundbeck Research Usa, 2012).
# What was measured:
# Cytochrome P450 3A4 = Cytochrome P450 3A4 (Homo sapiens, UniProt P08684); test: Inhibition of CYP3A4
# Cytochrome P450 2D6 = Cytochrome P450 2D6 (Homo sapiens, UniProt P10635); test: Inhibition of CYP2D6
# Cytochrome P450 2D6, sequence (P10635 whole entry): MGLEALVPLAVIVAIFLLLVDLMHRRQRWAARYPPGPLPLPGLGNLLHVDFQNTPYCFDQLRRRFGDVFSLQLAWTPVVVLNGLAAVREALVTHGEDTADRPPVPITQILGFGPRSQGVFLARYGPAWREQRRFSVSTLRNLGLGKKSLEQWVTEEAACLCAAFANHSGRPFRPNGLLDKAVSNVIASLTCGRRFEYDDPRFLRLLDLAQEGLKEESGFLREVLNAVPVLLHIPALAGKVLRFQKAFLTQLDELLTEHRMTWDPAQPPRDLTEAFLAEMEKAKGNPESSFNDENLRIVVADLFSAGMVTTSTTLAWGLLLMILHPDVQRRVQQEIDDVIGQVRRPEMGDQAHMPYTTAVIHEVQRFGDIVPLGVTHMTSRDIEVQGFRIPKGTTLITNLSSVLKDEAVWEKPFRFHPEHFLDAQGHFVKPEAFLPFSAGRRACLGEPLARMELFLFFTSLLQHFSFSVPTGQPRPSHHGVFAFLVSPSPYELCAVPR
# Cytochrome P450 3A4, sequence (P08684 whole entry): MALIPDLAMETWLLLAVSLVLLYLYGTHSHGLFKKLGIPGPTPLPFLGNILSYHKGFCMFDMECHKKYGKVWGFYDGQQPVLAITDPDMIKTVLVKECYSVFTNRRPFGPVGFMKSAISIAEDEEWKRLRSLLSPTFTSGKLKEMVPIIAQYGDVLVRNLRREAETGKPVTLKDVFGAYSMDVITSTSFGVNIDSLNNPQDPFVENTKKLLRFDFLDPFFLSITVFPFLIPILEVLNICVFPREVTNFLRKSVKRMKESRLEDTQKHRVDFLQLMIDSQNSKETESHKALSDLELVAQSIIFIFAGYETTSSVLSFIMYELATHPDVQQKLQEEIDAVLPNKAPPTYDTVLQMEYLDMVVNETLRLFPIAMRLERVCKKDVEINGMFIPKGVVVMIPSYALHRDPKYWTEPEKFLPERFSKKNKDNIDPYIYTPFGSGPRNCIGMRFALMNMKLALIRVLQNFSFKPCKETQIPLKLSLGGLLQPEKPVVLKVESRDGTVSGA
IC50 (Cytochrome P450 3A4) [µM],IC50 (Cytochrome P450 2D6) [µM],SMILES
25,33,O=C(C1CCC(F)(F)CC1)N1CC(c2nc(-c3cccc(Cl)c3)no2)C1
25,40,CC1CCCCC1C(=O)N1CC(c2nc(-c3cccc(F)c3)no2)C1 (centres undefined)
